Series [1] deals with Bacillus subtilis (ATCC23857). Put plainly: MBC, plating after MIC incubation. The format is cell-based. Particulars: 50 µl aliquots from MIC wells onto agar plates, overnight 37 °C, lowest concentration reducing CFUs at least 99.9%. As to the method: (§1) The minimal inhibitory concentration (MIC) of the peptides was measured in triplicate by the standard broth microdilution method (Peterson et al. [1980]; Wang et al. [2012]). In brief, bacteria/fungi were cultured overnight to mid-logarithmic-phase in Mueller–Hinton broth (MHB)/Sabouraud dextrose broth. The cultures were diluted to a final concentration of 2 × 10^4 cfu/ml in fresh Mueller–Hinton broth (MHB)/Sabouraud dextrose broth. Each well of 96-well propylene microtitre plates was filled with 100 µl cell suspension and 100 μl peptide solution of twofold diluted serially. And the final concentrations of peptide mixtures ranged from 1 to 256 µM. Controls were done without peptides. After 18 h of incubation at 37 °C (bacteria)/35 °C (fungi), the minimal inhibitory concentration (MIC) of the peptides was evaluated by visible turbidity in each well.
(§2) The minimal bactericidal concentrations (MBCs) and minimum fungicidal concentration (MFCs) of the peptides was determined at the end of the incubation period by transferring 50 µl aliquots onto agar plates and incubated overnight at 37 °C/35 °C. The MBC/MFC was set as the lowest concentration of the number of CFUs that reduced at least 99.9%.

The subject of the next series is E. coli (ATCC2592). Put plainly: MBC, plating after MIC incubation. The format is cell-based. Particulars: 50 µl aliquots from MIC wells onto agar plates, overnight 37 °C, lowest concentration reducing CFUs at least 99.9%. On the procedure: as §1, §2
For series [2], the system named is E. coli (ML-35) (ATCC43827). The series is described as follows: MBC, plating after MIC incubation. Format: cell-based. Particulars: 50 µl aliquots from MIC wells onto agar plates, overnight 37 °C, lowest concentration reducing CFUs at least 99.9%. On the procedure: as §1, §2
Series [3] deals with Pseudomonas aeruginosa (ATCC27853). Put plainly: MBC, plating after MIC incubation. The format is cell-based. The settings on record: 50 µl aliquots from MIC wells onto agar plates, overnight 37 °C, lowest concentration reducing CFUs at least 99.9%. On the procedure:
as §1, §2

Series [4] relates to Staphylococcus aureus (ATCC29213). Put plainly: MBC, plating after MIC incubation. The format is cell-based. The settings on record: 50 µl aliquots from MIC wells onto agar plates, overnight 37 °C, lowest concentration reducing CFUs at least 99.9%. As to the method:
as §1, §2

For series [5], the system named is Staphylococcus epidermidis (ATCC 12228). Put plainly: MBC, plating after MIC incubation. The format is cell-based. The settings on record: 50 µl aliquots from MIC wells onto agar plates, overnight 37 °C, lowest concentration reducing CFUs at least 99.9%. As to the method: as §1, §2
Another series relates to sakazakii (ATCC 29544). Put plainly: MBC, plating after MIC incubation. The format is cell-based. The settings on record: 50 µl aliquots from MIC wells onto agar plates, overnight 37 °C, lowest concentration reducing CFUs at least 99.9%. On the procedure:
as §1, §2

The subject of the next series is human erythrocytes. The series is described as follows: Hemolytic activity. The format is cell-based. Particulars: 37 °C, Fig. 2; for hemolytic activity under the concentration of 100 μM: 8% human erythrocytes in PBS pH 7.4, 60 min, hemoglobin release at 490 nm; for hemolytic activity compared to polybia-MPI: 8% human erythrocytes in PBS pH 7.4, peptide up to 256 µM, 60 min, 490 nm. On the procedure: Fresh human blood was collected in heparinized-tube, diluted in cold PBS (pH 7.4) and centrifuged at 800g for 10 min to remove the serum and buffy coat. The erythrocytes were washed twice time and re-suspended in the same buffer to a final erythrocyte concentration of 8% for the hemolysis assay (Sharma and Sharma [2001]). The RBC (red blood cell) suspension of 100 µl was transferred into a 96 well microtiter plate. Peptides were dissolved in PBS (pH 7.4) of different concentrations from 2 to 256 µM were incubated with 8% erythrocytes suspension for 60 min at 37 °C. Subsequently, the plate was centrifuged at 1200×g for 10 min. Then, aliquots of 100 µl supernatant were retransferred to an another 96-well plates and measured to monitor the release of hemoglobin by microplate reader (Bio-Rad 680) at 490 nm, which indicated RBC membrane damage. 100 µl RBC (red blood cell) suspension with 0.2% Triton-X 100 or PBS was used as positive and negative control, respectively. Hemolysis rate was determined as below: Hemolysisrate(%)=(A-A2)/(A1-A2)×100% where A is the absorbance of indicator mixtures with different factors, A1 and A2 are the positive control, and the negative control, respectively (Kim et al. [2011]).
Fig. 2 The hemolytic activity of polybia-MPI and synthetic D-MPI and D-lys-MPI against human erythrocytes were determined. Fresh human blood was collected and centrifuged to remove the serum and buffy coat, and re-suspended to a final erythrocyte concentration of 8% erythrocytes suspension. Then, peptides of different concentrations from 2 to 256 μM were incubated with erythrocytes suspension for 60 min. Subsequently, the erythrocytes suspension was centrifuged and measured to monitor the release of hemoglobin at 490 nm

In the next series the test system is trypsin. The series is described as follows: Viability assay: antimicrobial activity against E. coli after trypsin treatment (Fig. 5). The format is in vitro ADME. Particulars: 37 °C, then E. coli at MIC, OD 600 nm. On the procedure: Viability assay different concentration of trypsin (from 0.0002 to 2 mg/ml) incubated with peptides for 1 or 6 h at 37 °C, and the enzymatic activity was terminated by additional heat inactivation at 60 °C for 20 min. Then the trypsin treated peptides were incubated with Escherichia coli (ATCC25922) at the concentration of MIC in 96-wells microtiter plate overnight at 37 °C (Choi et al. [2013]). The growth inhibitory effect was determined by measuring the absorbance at 600 nm. Then we took 100 μl samples of 6 h from each well with the concentration of 0.2 mg/ml and plated onto MH broth ager after dilution. After overnight incubation at 37 °C, photos of plates were photographed and the colonies on the plate were counted.

Series [6] relates to chymotrypsin. Put plainly: Viability assay: antimicrobial activity against E. coli after chymotrypsin treatment (Fig. 5). The format is in vitro ADME. The settings on record: 37 °C, then E. coli at MIC, OD 600 nm.
Series [7] has as its system chymotrypsin. Put plainly: RP-HPLC analysis of stability to chymotrypsin. The settings on record: peptide 10 mM, chymotrypsin 0.2 mg/ml, 37 °C, 0 and 360 min, TFA/acetonitrile precipitation, Fig. 7. The format is in vitro ADME. As to the method: The stability of polybia-MPI and its analogues was assayed with trypsin or chymotrypsin in a volume ratio of 1:15 (peptide:trypsin) (Choi et al. [2013]; Hamamoto et al. [2002]; Molhoek et al. [2011]). Peptides at the concentration of 10 mM were incubated with trypsin or chymotrypsin (0.2 mg/ml) at 37 °C. 40 µl samples of the incubations were taken for the time of 0 and 360 min, respectively. Then, the samples were mixed with 80 µl of 15% trifluoroacetic acid (TFA) and 80 µl acetonitrile which incubated at 4 °C for at least 15 min to precipitate proteins. The supernatant was collected of each sample after centrifugation at 13,000 rpm for 10 min and were detected with reverse phase high performance liquid chromatography (RP-HPLC) analysis.
Fig. 7 HPLC analysis of the susceptibility of polybia-MPI, D-MPI and D-lys-MPI to trypsin and chymotrypsin. Peptides at the concentration of 10 mM were incubated with trypsin or chymotrypsin at 37 °C. At the determined time interval, samples were taken and mixed with trifluoroacetic acid (TFA) and acetonitrile to precipitate proteins, respectively. Then the samples were detected with reverse phase high performance liquid chromatography (RP-HPLC) analysis

The next series deals with (ATCC 700603). The settings on record: ATCC 700603, 18 h.

Converted amounts (≈) assume the structure as drawn. Where a SMILES comes first, the peptide text is derived from it. Where no end group is shown, it is not given here. [ ]: non-standard residue; d: D form.

In the case of IDWKKLLDAAKQIL-NH2 [Polybia-MPI], the MBC/MFC in series [1] is listed as 8 µM; with E. coli (ATCC2592), 32 µM; in series [2], 256 µM; in series [3], over 256 µM; in series [4], 128 µM; in [5] it was 32 µM. Further, the MBC/MFC is 64 µM against sakazakii (ATCC 29544) and 256 µM in the series on (ATCC 700603). In addition, the “hemolytic activity under the concentration of 100 μM” value (“hemolytic activity … of 100 μM” below) with human erythrocytes was “no significant hemolytic activity”. For the same molecule, the “trypsin concentration that totally inhibits the antimicrobial activity of the peptide” value with trypsin (incubation 1 h) was 0.002 mg/mL. The “chymotrypsin concentration that totally inhibits the antimicrobial activity of the peptide” value with chymotrypsin [6] (incubation 1 h) came to 0.002 mg/mL. Besides, the “susceptibility to chymotrypsin by HPLC profile” value (from here on “susceptibility to chymotrypsin”) in the series on chymotrypsin [7] is “susceptible”.
In the case of `CC[C@@H](C)[C@@H](N)C(=O)N[C@H](CC(=O)O)C(=O)N[C@H](Cc1c[nH]c2ccccc12)C(=O)N[C@H](CCCCN)C(=O)N[C@H](CCCCN)C(=O)N[C@H](CC(C)C)C(=O)N[C@H](CC(C)C)C(=O)N[C@H](CC(=O)O)C(=O)N[C@H](C)C(=O)N[C@H](C)C(=O)N[C@H](CCCCN)C(=O)N[C@H](CCC(N)=O)C(=O)N[C@@H](C(=O)N[C@H](CC(C)C)C(N)=O)[C@H](C)CC` [D-MPI] (H-[dI][dD][dW][dK][dK][dL][dL][dD][dA][dA][dK][dQ][dI][dL]-NH2), the MBC/MFC in [1] amounted to 8 µM (≈ 13.2 µg/mL); against E. coli (ATCC2592), 16 µM (≈ 26.5 µg/mL); in series [2] it was 64 µM (≈ 106 µg/mL); in series [3] it was 128 µM (≈ 212 µg/mL); in [4], 64 µM (≈ 106 µg/mL); in [5] it was 128 µM (≈ 212 µg/mL). Besides, the MBC/MFC was 64 µM (≈ 106 µg/mL) in the series on sakazakii (ATCC 29544) and 128 µM (≈ 212 µg/mL) with (ATCC 700603). In addition, the “hemolytic activity … of 100 μM” value in the series on human erythrocytes is “no significant hemolytic activity”. Moreover, in the series on human erythrocytes, the “hemolytic activity compared to polybia-MPI” value was “decreased”. In addition, the “antimicrobial activity after incubation with trypsin” value in the series with trypsin (2 mg/ml trypsin, 6 h) is “retained its antimicrobial activity”. In addition, the “antimicrobial activity after incubation with chymotrypsin” value in the series on chymotrypsin [6] (2 mg/ml chymotrypsin, 6 h) is on record as “retained its antimicrobial activity”. In addition, in the series on chymotrypsin [7], the “susceptibility to chymotrypsin” value is “not or only partly degraded”.
For `CC[C@H](C)[C@H](N)C(=O)N[C@@H](CC(=O)O)C(=O)N[C@@H](Cc1c[nH]c2ccccc12)C(=O)N[C@H](CCCCN)C(=O)N[C@H](CCCCN)C(=O)N[C@@H](CC(C)C)C(=O)N[C@@H](CC(C)C)C(=O)N[C@@H](CC(=O)O)C(=O)N[C@@H](C)C(=O)N[C@@H](C)C(=O)N[C@H](CCCCN)C(=O)N[C@@H](CCC(N)=O)C(=O)N[C@H](C(=O)N[C@@H](CC(C)C)C(N)=O)[C@@H](C)CC` [D-lys-MPI] (H-IDW[dK][dK]LLDAA[dK]QIL-NH2), the MBC/MFC (in series [1]; against E. coli (ATCC2592); in [2]; in [3]; in [4]; in [5]) was over 256 µM each time. Also, the MBC/MFC against sakazakii (ATCC 29544) and against (ATCC 700603) was over 256 µM each time. Further, the “hemolytic activity … of 100 μM” value in the series on human erythrocytes is “no significant hemolytic activity”. In the series with human erythrocytes, the “hemolytic activity compared to polybia-MPI” value is “abrogated”. The “susceptibility to chymotrypsin” value in the series on chymotrypsin [7] was “not or only partly degraded”.

The record behind these values is publication PMC5128008, “Antimicrobial activity and stability of the D-amino acid substituted derivatives of antimicrobial peptide polybia-MPI” (AMB Express, 2016).
